Experimental data from PubChem BioAssay AID248 (DTP/NCI, 2004).
Values joined by “and” are separate entries in the source; they are usually repeats but may differ in a detail not shown here. Equal entries are not always repeated. Inconclusive results and toxic doses are left out. Rule as the data show it: active = T/C of 150% or more; inactive = T/C below 125%.

System: L1210 leukemia ip in BDF1 mice, survival T/C
Assay: NCI In Vivo Anticancer Drug Screen. Data for tumor model L1210 Leukemia (intraperitoneal) in B6D2F1 (BDF1) mice
Conditions: endpoint: mean survival time, higher = longer survival
Outline: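 Tumor was transplanted into mice, which were then dosed with test compound or vehicle alone. Survival was recorded for each group, and the treated figure was expressed relative to the control figure.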

[1] = dose: 100.0 mg/kg/injection, schedule: Q01DX009 (ip), vehicle: saline
[2] = dose: 100.0 mg/kg/injection, schedule: Q04DX002 (ip), vehicle: saline with Tween-80
[3] = dose: 200.0 mg/kg/injection, schedule: Q01DX009 (ip), vehicle: saline
[4] = dose: 200.0 mg/kg/injection, schedule: Q04DX002 (ip), vehicle: saline with Tween-80
[5] = dose: 400.0 mg/kg/injection, schedule: Q04DX002 (ip), vehicle: saline with Tween-80
[6] = dose: 15.0 mg/kg/injection, schedule: Q01DX Z (ip), vehicle: carboxymethylcellulose (CMC)
[7] = dose: 30.0 mg/kg/injection, schedule: Q01DX Z (ip), vehicle: carboxymethylcellulose (CMC)
[8] = dose: 60.0 mg/kg/injection, schedule: Q01DX Z (ip), vehicle: carboxymethylcellulose (CMC)
[9] = dose: 120.0 mg/kg/injection, schedule: Q01DX Z (ip), vehicle: carboxymethylcellulose (CMC)
[10] = dose: 100.0 mg/kg/injection, schedule: Q01DX001 (ip), vehicle: carboxymethylcellulose (CMC)
[11] = dose: 100.0 mg/kg/injection, schedule: Q01DX009 (ip), vehicle: Klucel (hydroxypropylcellulose) (HPC)
[12] = dose: 200.0 mg/kg/injection, schedule: Q01DX001 (ip), vehicle: carboxymethylcellulose (CMC)
[13] = dose: 200.0 mg/kg/injection, schedule: Q01DX009 (ip), vehicle: Klucel (hydroxypropylcellulose) (HPC)
[14] = dose: 400.0 mg/kg/injection, schedule: Q01DX001 (ip), vehicle: carboxymethylcellulose (CMC)
[15] = dose: 400.0 mg/kg/injection, schedule: Q01DX009 (ip), vehicle: Klucel (hydroxypropylcellulose) (HPC)
[16] = dose: 100.0 mg/kg/injection, schedule: Q04DX003 (ip), vehicle: saline
[17] = dose: 200.0 mg/kg/injection, schedule: Q04DX003 (ip), vehicle: saline
[18] = dose: 400.0 mg/kg/injection, schedule: Q04DX003 (ip), vehicle: saline
[19] = dose: 100.0 mg/kg/injection, schedule: Q04DX003 (ip), vehicle: saline with Tween-80
[20] = dose: 200.0 mg/kg/injection, schedule: Q04DX003 (ip), vehicle: saline with Tween-80
[21] = dose: 100.0 mg/kg/injection, schedule: Q01DX009 (ip), vehicle: saline with Tween-80
[22] = dose: 200.0 mg/kg/injection, schedule: Q01DX009 (ip), vehicle: saline with Tween-80
[23] = dose: 100.0 mg/kg/injection, schedule: Q01DX001 (ip), vehicle: Klucel (hydroxypropylcellulose) (HPC)
[24] = dose: 200.0 mg/kg/injection, schedule: Q01DX001 (ip), vehicle: Klucel (hydroxypropylcellulose) (HPC)

Measured: T/C

Oc1c(Br)cc(-c2ccccc2)cc1Br
inactive: dose: 100.0 mg/kg/injection, schedule: Q04DX002 (ip), vehicle: gum acacia 95 % of control | dose: 200.0 mg/kg/injection, schedule: Q04DX002 (ip), vehicle: gum acacia 95 % of control | dose: 400.0 mg/kg/injection, schedule: Q04DX002 (ip), vehicle: gum acacia 103 % of control

COC(=O)C1=C(C(=O)OC)C2CCC1O2
inactive: [1] 112 % of control | [2] 105 % of control | [3] 106 % of control | [4] 101 % of control | dose: 400.0 mg/kg/injection, schedule: Q01DX009 (ip), vehicle: saline 95 % of control | [5] 94 % of control

O=C(Nc1ccc(N=C(Nc2ccccc2)c2ccccc2)cc1)c1ccc(C(=O)Nc2ccc(N=C(Nc3ccccc3)c3ccccc3)cc2)cc1
inactive: [6] 93 % of control | [7] 93 % of control | [8] 97 % of control | [9] 95 % of control

CCCCCCCCSC(=O)N(C(C)C)C(C)C
inactive: dose: 50.0 mg/kg/injection, schedule: Q04DX002 (ip), vehicle: saline 100 % of control | dose: 100.0 mg/kg/injection, schedule: Q04DX002 (ip), vehicle: saline 100 % of control and 105 % of control | dose: 200.0 mg/kg/injection, schedule: Q04DX002 (ip), vehicle: saline 100 % of control | dose: 400.0 mg/kg/injection, schedule: Q04DX002 (ip), vehicle: saline 108 % of control and 86 % of control

CN1c2cccc[c]2[Sn]([CH3])([CH3])[c]2ccccc21
inactive: dose: 100.0 mg/kg/injection, schedule: Q01DX001 (ip), vehicle: other 92 % of control | dose: 200.0 mg/kg/injection, schedule: Q01DX001 (ip), vehicle: other 92 % of control | dose: 400.0 mg/kg/injection, schedule: Q01DX001 (ip), vehicle: other 108 % of control

Cc1cc(C)c(O)c(N=Nc2ccccc2)c1
inactive: dose: 100.0 mg/kg/injection, schedule: Q04DX003 (ip), vehicle: saline sonified 95 % of control | dose: 200.0 mg/kg/injection, schedule: Q04DX003 (ip), vehicle: saline sonified 93 % of control | dose: 400.0 mg/kg/injection, schedule: Q04DX003 (ip), vehicle: saline sonified 91 % of control

CCOC(=O)Nc1cc(NC(c2ccccc2)c2ccccc2)c(N)c(N)n1
inactive: [10] 102 % of control | [11] 98 % of control | [12] 122 % of control | [13] 98 % of control | [14] 107 % of control | [15] 91 % of control

Cn1cnc([N+](=O)[O-])c1SCC(=O)O
inactive: [16] 102 % of control | [17] 102 % of control | [18] 101 % of control

O=C(O)c1cccnc1C(=O)Nc1cccc2ccccc12
inactive: [2] 105 % of control | [4] 105 % of control | [5] 105 % of control

COc1ccccc1/C=N\N/C(N)=N\N=C\c1ccccc1OC
inactive: [6] 98 % of control | [7] 103 % of control | [8] 103 % of control and 117 % of control | [9] 101 % of control and 117 % of control | dose: 240.0 mg/kg/injection, schedule: Q01DX Z (ip), vehicle: carboxymethylcellulose (CMC) 108 % of control | dose: 240.0 mg/kg/injection, schedule: Q01DX Z (oral), vehicle: carboxymethylcellulose (CMC) 97 % of control | dose: 480.0 mg/kg/injection, schedule: Q01DX Z (ip), vehicle: carboxymethylcellulose (CMC) 121 % of control | dose: 480.0 mg/kg/injection, schedule: Q01DX Z (oral), vehicle: carboxymethylcellulose (CMC) 105 % of control | dose: 960.0 mg/kg/injection, schedule: Q01DX Z (oral), vehicle: carboxymethylcellulose (CMC) 95 % of control | dose: 1920.0 mg/kg/injection, schedule: Q01DX Z (oral), vehicle: carboxymethylcellulose (CMC) 105 % of control

O=[N+]([O-])c1ccc(N=Nc2ccc(O)cc2)cc1
inactive: dose: 55.0 mg/kg/injection, schedule: Q01DX Z (ip), vehicle: methylcellulose (MC) 103 % of control | dose: 83.0 mg/kg/injection, schedule: Q01DX Z (ip), vehicle: methylcellulose (MC) 117 % of control | [19] 98 % of control | dose: 125.0 mg/kg/injection, schedule: Q01DX Z (ip), vehicle: methylcellulose (MC) 103 % of control | [20] 91 % of control | dose: 400.0 mg/kg/injection, schedule: Q04DX003 (ip), vehicle: saline with Tween-80 98 % of control

Ic1cccc(/C=N/Nc2nnc(N/N=C/c3cccc(I)c3)c3ccccc23)c1
inactive: dose: 50.0 mg/kg/injection, schedule: Q01DX001 (ip), vehicle: saline 102 % of control | dose: 100.0 mg/kg/injection, schedule: Q01DX001 (ip), vehicle: saline 102 % of control | dose: 200.0 mg/kg/injection, schedule: Q01DX001 (ip), vehicle: saline 102 % of control | dose: 400.0 mg/kg/injection, schedule: Q01DX001 (ip), vehicle: saline 108 % of control

O=C1NCC(c2ccccc2)(c2ccccc2)C(=O)N1
inactive: dose: 50.0 mg/kg/injection, schedule: Q01DX001 (ip), vehicle: carboxymethylcellulose (CMC) 94 % of control | [10] 94 % of control | [12] 91 % of control | [14] 86 % of control

C=C(Br)CNC(=O)NCC(=C)Br
inactive: [21] 105 % of control | [22] 100 % of control | dose: 400.0 mg/kg/injection, schedule: Q01DX009 (ip), vehicle: saline with Tween-80 105 % of control

Cc1c(Cl)cccc1NC(=O)Nc1nccs1
inactive: dose: 50.0 mg/kg/injection, schedule: Q04DX003 (ip), vehicle: saline with Tween-80 103 % of control | [21] 101 % of control and 104 % of control | [2] 100 % of control and 103 % of control | [19] 101 % of control | [22] 100 % of control | [4] 95 % of control and 96 % of control | [20] 114 % of control | [5] 109 % of control

CN(C)C(=O)Nc1ccc(Cl)cc1
inactive: [1] 91 % of control | [16] 93 % of control | [3] 100 % of control | [17] 98 % of control | [18] 101 % of control

OC1(c2ccccc2)C=C(c2ccccc2)C=C(c2ccccc2)O1 (centres undefined)
inactive: dose: 50.0 mg/kg/injection, schedule: Q01DX001 (ip), vehicle: Klucel (hydroxypropylcellulose) (HPC) 87 % of control | [23] 92 % of control | [24] 94 % of control

COC(=O)C(CCC#N)(CCC#N)C(C)=O
inactive: [23] 96 % of control | [24] 91 % of control | dose: 400.0 mg/kg/injection, schedule: Q01DX001 (ip), vehicle: Klucel (hydroxypropylcellulose) (HPC) 89 % of control

O=C(Nc1cccc(F)c1)Nc1ccccc1C(F)(F)F
inactive: [11] 97 % of control | [13] 91 % of control | [15] 94 % of control
